“And” between values parts separate entries of the source, which are not always exact repeats. Equal entries are not always repeated.
Tests used:
[1] = molecular target: T1, CHOK1 cells engineered to overexpress human CCR2 (Homo sapiens, UniProt P41597); assay: Antibody dependent cellular cytotoxicity (ADCC) reporter assay (Example 199); type: cell-based; conditions: with anti-cotinine antibody (SEQ ID NO: 11/12), Jurkat FcγRIIIa NFAT-luciferase reporter cells, 12-18 hours, EC50 in molar, average or individual runs; for EC50: read-out: ADCC Reporter Assay pEC50 (converted)
T1 construct: expressed in transfected cells; host or cells: CHOK1
Protocol: An antibody dependent cellular cytoxocity reporter assay was conducted using the following four assay components: (i) ARM compound of Formula (I) targeting CCR2 (concentrations ranging from […] to 10 μM) (ii) anti-cotinine antibody having a heavy chain sequence of SEQ ID NO: 11 and a light chain sequence of SEQ ID NO: 12 (rabbit variable region with human IgG1 Fc domain containing a DE mutation (S239D/1332E)) (concentrations ranging from 0.01 μg/mL to 200 μg/mL); (iii) target cells: CHOK1 cells engineered to overexpress either human CCR2 (typically 1000-20,000 cells per well) and (iv) reporter cells: Jurkat cells engineered to express FcγRIIIa with the reporter gene luciferase under the control of the NFAT promoter (typically 3000-75,000 cells per well). Reagents were combined in a final volume of 20 μL in a 384-well tissue culture treated plate. All four assay components were incubated together for about 12-18 hours. Thereafter, BioGlo Detection reagent (Promega) was added to the wells to lyse the cells and provide a substrate for the luciferase reporter protein. Luminescence signal was measured on a microplate reader and signal: background was calculated by dividing the signal of a test well by the signal obtained when no heterobivalent compound of Formula (I) was added. EC50 calculations were done using Graphpad Prism Software, specifically a nonlinear regression curve fit (Y=Bottom+(Top−Bottom)/(1+10A((LogEC50−X)*HillSlope))).
ARMs compounds of Formula (I) of the invention were tested for ADCC activity in the above assay in or more experimental runs and the results are shown in Table 3 below. Potency of the compounds of Formula (I) of the invention is reported as a pEC50 value. The pEC50 value is the negative log of the EC50 value, wherein the EC50 value is the half maximal effective concentration measured in molar (M). For compounds tested in more than one experimental run, the pEC50 value is reported as an average.

[2] = system: endogenous target monocytes in human PBMC; assay: PBMC ex vivo monocyte depletion flow cytometry assay (Example 200); type: cell-based; conditions: with anti-cotinine antibody (SEQ ID NO: 11/12), 18-24 hours, EC50 in molar, read-out: Ex Vivo Depletion Assay pEC50 (converted)
Procedure, shortened: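 Monocyte depletion is reported as pEC50, averaged or given individually across runs, and read by flow cytometry staining CD45, CD14 and CD4 with a viability dye. Compounds, diluted four-fold over 11 points from 1 mM DMSO stocks, were combined with 30 μg/mL Fc-enhanced anti-cotinine antibody and human PBMC, then incubated 18-24 h at 37° C.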

[3] = molecular target: anti-cotinine antibody (SEQ ID NO: 11/12, rabbit variable region with human IgG1 Fc DE mutation); assay: SPR binding of anti-cotinine antibody to ARM compounds, Biacore T200, 37° C. (Example 202); conditions: SPR Biacore T200, 37° C., pH 7.4, antibody SEQ ID NO: 11/12 captured on protein A; Kd in molar
Procedure, shortened: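 Run at 37 °C in 10 mM HEPES pH 7.4, 150 mM NaCl, 0.005% P20, 1% DMSO, with compounds titrated from 200 nM (five 3-fold steps) over protein A–captured antibody. A 1:1 kinetic model on double-referenced data gave rate constants, Kd as koff/kon and residence time 1/koff; results as pKd, run-averaged.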

[4] = system: CCR2 expressing cells (CD11b+Ly6c+Hi) in peripheral blood; assay: In vivo depletion assay, flow cytometry of peripheral blood (Example 201); set-up: species or system human CCR2 knock-in mice (C57 background); conditions: hCCR2 knock-in mice, IV 0.1 mpk compound + 10 mpk anti-cotinine antibody (SEQ ID NO: 13/14), peripheral blood at 48 hr
Procedure, shortened: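 Flow cytometry of blood collected at study termination quantified percent depletion of CD11b+Ly6c+Hi cells and CCR2 expression, using surface markers CD45, CD3, CD11b, Ly6C, human CCR2 after Fc block, with 7AAD viability stain. Compound given in saline:DMSO:PBS formulation, optionally combined with anti-cotinine antibody, incubated 30 min before administration.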

| Compound | EC50 [1] | EC50 [2] [nM] | ADCC Reporter Assay pEC50 [1] | pKd of Antibody for ARM Compound of Formula (I) [3] | % Depletion of CCR2 expressing cells [4] [%] |
| --- | --- | --- | --- | --- | --- |
| CC(C)N(C)[C@@H]1CC[C@H](N2CC[C@H](Nc3ncnc4ccc(C(F)(F)F)cc34)C2=O)[C@H](NC(=O)C2CCC(N3CCC(S(=O)(=O)NCCCCCCNC(=O)[C@H]4CC(=O)N(C)[C@@H]4c4cccnc4)CC3)CC2)C1 (single isomer, unassigned) [Example 149] | 0.251 nM | 0.251 | – | – | – |
| CC(C)N(C)[C@@H]1CC[C@H](N2CC[C@H](Nc3ncnc4ccc(C(F)(F)F)cc34)C2=O)[C@H](NC(=O)CCOCCOCCOCCOCCOCCOCCOCCOCCOCCOCCOCCOCCOCCOCCOCCOCCOCCOCCOCCOCCOCCOCCOCCNC(=O)C2CC(=O)N(C)C2c2cccnc2)C1 (stereo in doubt) [Example 43, (2R,3R)-N-(72-(((1R,2S,5R)-5-(isopropyl(methyl)amino)-2-((S)-2-oxo-3-((6-(trifluoromethyl)quinazolin-4-yl)amino)pyrrolidin-1-yl)cyclohexyl)amino)-72-oxo-3,6,9,12,15,18,21,24,27,30,33,36,39,42,45,48,51,54,57,60,63,66,69-tricosaoxadoheptacontyl)-1-methyl-5-oxo-2-(pyridin-3-yl)pyrrolidine-3-carboxamide] | – | – | 8.8 | – | – |
| CC(C)N(C)[C@@H]1CC[C@H](N2CC[C@H](Nc3ncnc4ccc(C(F)(F)F)cc34)C2=O)[C@H](NC(=O)CCOCCOCCOCCOCCNC(=O)[C@H]2CC(=O)N(C)[C@@H]2c2cccnc2)C1 [Example 39, (2S,3S)-N-(15-(((1R,2S,5R)-5-(Isopropyl(methyl)amino)-2-((S)-2-oxo-3-((6-(trifluoromethyl)quinazolin-4-yl)amino)pyrrolidin-1-yl)cyclohexyl)amino)-15-oxo-3,6,9,12-tetraoxapentadecyl)-1-methyl-5-oxo-2-(pyridin-3-yl)pyrrolidine-3-carboxamide] | 15.8 nM | 2510 | – | – | – |
| CC(C)N(C)[C@@H]1CC[C@H](N2CC[C@H](Nc3ncnc4ccc(C(F)(F)F)cc34)C2=O)[C@H](N[C@H]2CC[C@@H](C(=O)NCCOCCOCCOCCOCCNC(=O)[C@H]3CC(=O)N(C)[C@@H]3c3cccnc3)CC2)C1 [Example 67] | 5.01 nM | 3.98 | – | – | – |
| CC(C)N(C)[C@@H]1CC[C@H](N2CC[C@H](Nc3ncnc4ccc(C(F)(F)F)cc34)C2=O)[C@H](NC(=O)CCCNc2c(NCCOCCOCCOCCOCCNC(=O)[C@H]3CC(=O)N(C)[C@@H]3c3cccnc3)c(=O)c2=O)C1 [Example 164, (2S,3S)-N-(14-((2-((4-(((1R,2S,5R)-5-(Isopropyl(methyl)amino)-2-((S)-2-oxo-3-((6-(trifluoromethyl)quinazolin-4-yl)amino)pyrrolidin-1-yl)cyclohexyl)amino)-4-oxobutyl)amino)-3,4-dioxocyclobut-1-en-1-yl)amino)-3,6,9,12-tetraoxatetradecyl)-1-methyl-5-oxo-2-(pyridin-3-yl)pyrrolidine-3-carboxamide] | – | 1 | – | 9.3225 | 86 |
| CC(C)N(C)[C@@H]1CC[C@H](N2CC[C@H](Nc3ncnc4ccc(C(F)(F)F)cc34)C2=O)[C@H](NC(=O)CCCCCCCCC(=O)NCCCCCCNC(=O)[C@H]2CC(=O)N(C)[C@@H]2c2cccnc2)C1 [Example 166, N1-((1R,2S,5R)-5-(isopropyl(methyl)amino)-2-((S)-2-oxo-3-((6-(trifluoromethyl)quinazolin-4-yl)amino)pyrrolidin-1-yl)cyclohexyl)-N10-(6-((2S,3S)-1-methyl-5-oxo-2-(pyridin-3-yl)pyrrolidine-3-carboxamido)hexyl)decanediamide] | 0.501 nM | 1.26 | – | – | – |
| CC(C)N(C)[C@@H]1CC[C@H](N2CC[C@H](Nc3ncnc4ccc(C(F)(F)F)cc34)C2=O)[C@H](NC(=O)CCOCCOCCOCCNc2c(NCCCNC(=O)[C@H]3CC(=O)N(C)[C@@H]3c3cccnc3)c(=O)c2=O)C1 [Example 169, (2S,3S)-N-(3-((2-((2-(2-(2-(3-(((1R,2S,5R)-5-(Isopropyl(methyl)amino)-2-((S)-2-oxo-3-((6-(trifluoromethyl)quinazolin-4-yl)amino)pyrrolidin-1-yl)cyclohexyl)amino)-3-oxopropoxy)ethoxy)ethoxy)ethyl)amino)-3,4-dioxocyclobut-1-en-1-yl)amino)propyl)-1-methyl-5-oxo-2-(pyridin-3-yl)pyrrolidine-3-carboxamide] | – | 0.251 | – | 9.0085 | 87 |
| CC(C)N(C)[C@@H]1CC[C@H](N2CC[C@H](Nc3ncnc4ccc(C(F)(F)F)cc34)C2=O)[C@H](NC(=O)CCCC(=O)NCCCOCCCNC(=O)CCCNC(=O)[C@H]2CC(=O)N(C)[C@@H]2c2cccnc2)C1 [Example 173, N^1-((1R,2S,5R)-5-(Isopropyl(methyl)amino)-2-((S)-2-oxo-3-((6-(trifluoromethyl)quinazolin-4-yl)amino)pyrrolidin-1-yl)cyclohexyl)-N5-(3-(3-(4-((2S,3S)-1-methyl-5-oxo-2-(pyridin-3-yl)pyrrolidine-3-carboxamido)butanamido)propoxy)propyl)glutaramide] | – | 0.794 | – | 9.1415 | 91 |
| CC(C)N(CCOCCOCCC(=O)N[C@H]1CC[C@@H](C(=O)N[C@@H]2C[C@H](N(C)C(C)C)CC[C@@H]2N2CC[C@H](Nc3ncnc4ccc(C(F)(F)F)cc34)C2=O)CC1)C(=O)CCNC(=O)[C@H]1CC(=O)N(C)[C@@H]1c1cccnc1 [Example 178, (2S,3S)-N-(3-(Isopropyl(2-(2-(3-(((1S,4s)-4-(((1R,2S,5R)-5-(isopropyl(methyl)amino)-2-((S)-2-oxo-3-((6-(trifluoromethyl)quinazolin-4-yl)amino)pyrrolidin-1-yl)cyclohexyl)carbamoyl)cyclohexyl)amino)-3-oxopropoxy)ethoxy)ethyl)amino)-3-oxopropyl)-1-methyl-5-oxo-2-(pyridin-3-yl)pyrrolidine-3-carboxamide] | 0.501 nM and 0.126 nM | 0.398 | – | – | – |
| CC(C)N(C)[C@@H]1CC[C@H](N2CC[C@H](Nc3ncnc4ccc(C(F)(F)F)cc34)C2=O)[C@H](NC(=O)CCCC(=O)N[C@H]2CC[C@@H](CNC(=O)CCOCCNC(=O)[C@H]3CC(=O)N(C)[C@@H]3c3cccnc3)CC2)C1 [Example 179, N^1-((1R,2S,5R)-5-(isopropyl(methyl)amino)-2-((S)-2-oxo-3-((6-(trifluoromethyl)quinazolin-4-yl)amino)pyrrolidin-1-yl)cyclohexyl)-N^5-((1R,4S)-4-((3-(2-((2S,3S)-1-methyl-5-oxo-2-(pyridin-3-yl)pyrrolidine-3-carboxamido)ethoxy)propanamido)methyl)cyclohexyl)glutaramide] | – | 0.631 | – | 9.24 | 89.5 |
